According to ChEMBL document CHEMBL1141791, “A cytotoxic sesquiterpene alkaloid from the South China Sea gorgonian Subergorgia suberosa” (J Nat Prod, 2005):
In brackets after ≈: the same amount, converted by molar mass.

Tested on: MDA-MB-231
Assay: Cytotoxicity against human MDA-MB-231 cells by MTT method
Assay type: functional, cell-based

Structure (SMILES): C[C@H]1CC[C@H]2[C@H]3CC(=O)[C@H](Cn4c(O)nc5c(O)ncnc54)[C@]31CC2(C)C
- IC50: 8.87 mg/L (≈ 23.9 µM)
